Test results as given in ChEMBL document CHEMBL3885881, “DrugMatrix”.

Species: Rattus norvegicus
Assay: DrugMatrix - Regimen: Daily Repeat
Assay type: toxicity, organism-based, Sprague-Dawley
Set-up: regimen Daily Repeat, gender Male, age 6-8 weeks
Conditions: in vivo, po, 0 mg/kg, route oral GAVAGE, dose level Control, […]; for ABSOLUTE BASOPHIL / ABSOLUTE EOSINOPHIL / ABSOLUTE LYMPHOCYTE / ABSOLUTE MONOCYTE / BASOPHIL / EOSINOPHIL / ERYTHROCYTE COUNT / HEMATOCRIT / HEMOGLOBIN / LEUKOCYTE COUNT / LYMPHOCYTE / MEAN CORPUSCULAR HEMOGLOBIN / MEAN CORPUSCULAR HEMOGLOBIN CONCENTRATION / MEAN CORPUSCULAR VOLUME / MONOCYTE / NEUTROPHIL / PLATELET COUNT: tissue Blood
[1] = 72 h, tissue Plasma, time 3 day
[2] = 120 h, tissue Plasma, time 5 day

## Clc1ccc(Cl)cc1 [1,4-DICHLOROBENZENE]
72 h, time 3 day
  ABSOLUTE BASOPHIL: 50 cells/µL
  ABSOLUTE EOSINOPHIL: 43.3 cells/µL
  ABSOLUTE LYMPHOCYTE: 9670 cells/µL
  ABSOLUTE MONOCYTE: 210 cells/µL
  BASOPHIL: 0.4%
  EOSINOPHIL: 0.37%
  ERYTHROCYTE COUNT: 6.82 x10E6/uL
  HEMATOCRIT: 46.77%
  HEMOGLOBIN: 14.53 G/DL
  LEUKOCYTE COUNT: 11.77 x10E3/uL
  LYMPHOCYTE: 82.1%
  MEAN CORPUSCULAR HEMOGLOBIN: 21.33 pg
  MEAN CORPUSCULAR HEMOGLOBIN CONCENTRATION: 31.13 G/DL
  MEAN CORPUSCULAR VOLUME: 68.57 fL
  MONOCYTE: 1.8%
  NEUTROPHIL: 14.83%
  PLATELET COUNT: 1303.33 x10E3/uL
[1]
  ALANINE AMINOTRANSFERASE: 46.67 u/L
  ALBUMIN: 4.17 G/DL
  ALKALINE PHOSPHATASE: 530 u/L
  ASPARTATE AMINOTRANSFERASE: 81.33 u/L
  BLOOD UREA NITROGEN: 17.67 mg/dL
  CARBON DIOXIDE: 41.67 mmol/L
  CHLORIDE: 102 MEQ/L
  CHOLESTEROL: 70.33 mg/dL
  CREATINE PHOSPHOKINASE: 372.67 u/L
  CREATININE: 0.5 mg/dL
  GLUCOSE: 184 mg/dL
  LIPASE: 13.33 u/L
  PHOSPHORUS: 10.2 mg/dL
  POTASSIUM: 6.13 MEQ/L
  SODIUM: 145 MEQ/L
  TOTAL BILIRUBIN: 0.43 mg/dL
  TOTAL PROTEIN: 6.7 G/DL
  URIC ACID: 0.83 mg/dL
120 h, time 5 day
  ABSOLUTE BASOPHIL: 33.3 cells/µL
  ABSOLUTE EOSINOPHIL: 56.7 cells/µL
  ABSOLUTE LYMPHOCYTE: 9220 cells/µL
  ABSOLUTE MONOCYTE: 230 cells/µL
  BASOPHIL: 0.3%
  EOSINOPHIL: 0.5%
  ERYTHROCYTE COUNT: 6.62 x10E6/uL
  HEMATOCRIT: 46.43%
  HEMOGLOBIN: 14.3 G/DL
  LEUKOCYTE COUNT: 10.96 x10E3/uL
  LYMPHOCYTE: 83.83%
  MEAN CORPUSCULAR HEMOGLOBIN: 21.57 pg
  MEAN CORPUSCULAR HEMOGLOBIN CONCENTRATION: 30.77 G/DL
  MEAN CORPUSCULAR VOLUME: 70.13 fL
  MONOCYTE: 2.1%
  NEUTROPHIL: 12.53%
  PLATELET COUNT: 1056.67 x10E3/uL
[2]
  ALANINE AMINOTRANSFERASE: 41.33 u/L
  ALBUMIN: 4.07 G/DL
  ALKALINE PHOSPHATASE: 603.33 u/L
  ASPARTATE AMINOTRANSFERASE: 80 u/L
  BLOOD UREA NITROGEN: 14.67 mg/dL
  CARBON DIOXIDE: 43 mmol/L
  CHLORIDE: 104 MEQ/L
  CHOLESTEROL: 88.33 mg/dL
  CREATINE PHOSPHOKINASE: 391.67 u/L
  CREATININE: 0.47 mg/dL
  GLUCOSE: 156 mg/dL
  LIPASE: 10.67 u/L
  PHOSPHORUS: 9.03 mg/dL
  POTASSIUM: 6.1 MEQ/L
  SODIUM: 145.67 MEQ/L
  TOTAL BILIRUBIN: 0.37 mg/dL
  TOTAL PROTEIN: 6.53 G/DL
  URIC ACID: 0.5 mg/dL
Time 14 day
  ABSOLUTE BASOPHIL: 73.3 cells/µL
  ABSOLUTE EOSINOPHIL: 60 cells/µL
  ABSOLUTE LYMPHOCYTE: 12200 cells/µL
  ABSOLUTE MONOCYTE: 250 cells/µL
  BASOPHIL: 0.5%
  EOSINOPHIL: 0.37%
  ERYTHROCYTE COUNT: 7.33 x10E6/uL
  HEMATOCRIT: 44.3%
  HEMOGLOBIN: 14.77 G/DL
  LEUKOCYTE COUNT: 14.86 x10E3/uL
  LYMPHOCYTE: 81.87%
  MEAN CORPUSCULAR HEMOGLOBIN: 20.2 pg
  MEAN CORPUSCULAR HEMOGLOBIN CONCENTRATION: 33.33 G/DL
  MEAN CORPUSCULAR VOLUME: 60.57 fL
  MONOCYTE: 1.63%
  NEUTROPHIL: 14.93%
  PLATELET COUNT: 1101.67 x10E3/uL
Tissue Plasma, time 14 day
  ALANINE AMINOTRANSFERASE: 31.67 u/L
  ALBUMIN: 3.83 G/DL
  ALKALINE PHOSPHATASE: 430.67 u/L
  ASPARTATE AMINOTRANSFERASE: 87 u/L
  BLOOD UREA NITROGEN: 14.33 mg/dL
  CARBON DIOXIDE: 39 mmol/L
  CHLORIDE: 104 MEQ/L
  CHOLESTEROL: 66 mg/dL
  CREATINE PHOSPHOKINASE: 441.67 u/L
  CREATININE: 0.7 mg/dL
  GLUCOSE: 125.67 mg/dL
  LACTATE DEHYDROGENASE: 397.67 u/L
  LIPASE: 12.33 u/L
  PHOSPHORUS: 9.87 mg/dL
  POTASSIUM: 5.93 MEQ/L
  SODIUM: 145 MEQ/L
  TOTAL BILIRUBIN: 0.37 mg/dL
  TOTAL PROTEIN: 6.27 G/DL
  URIC ACID: 0.67 mg/dL
